Measured values as given in patent publication US9115143B2, “Substituted indole derivatives as gamma secretase modulators” (Janssen Pharmaceuticals, Inc., priority 2011, dated 2015).

What was measured:
Aβ42 = experiment: Screening for γ-secretase-modulating activity: Aβ42 in supernatant of SKNBE2 cells carrying hAPP 695 wild type (Alphalisa); format: cell-based, human; conditions: overnight incubation, Alphalisa on supernatant
Experimental: (§1) Pharmacology A) Screening of the Compounds of the Invention for γ-Secretase-Modulating Activity
(§2) Screening was carried out using SKNBE2 human neuroblastoma cells carrying the hAPP 695—wild type, grown in Dulbecco's Modified Eagle's Medium/Nutrient mixture F-12 (DMEM/NUT-mix F-12) (HAM) provided by Invitrogen (cat no. 10371-029) containing 5% Serum/Fe supplemented with 1% non-essential amino acids, 1-glutamine 2 mM, Hepes 15 mM, penicillin 50 U/mL (units/mL) en streptomycin 50 μg/mL. Cells were grown to near confluency.
(§3) The screening was performed using a modification of the assay as described in Citron et al (1997) Nature Medicine 3: 67. Briefly, cells were plated in a 384-well plate at 10^4 cells/well in Ultraculture (Lonza, BE12-725F) supplemented with 1% glutamine (Invitrogen, 25030-024), 1% non-essential amino acid (NEAA), penicillin 50 U/mL en streptomycin 50 μg/mL in the presence of test compound at different test concentrations. The cell/compound mixture was incubated overnight at 37° C., 5% CO2. The next day the media were assayed by two sandwich immuno-assays, for Aβ42 and Aβtotal.
(§4) Aβtotal and Aβ42 concentrations were quantified in the cell supernatant using the Aphalisa technology (Perkin Elmer). Alphalisa is a sandwich assay using biotinylated antibody attached to streptavidin coated donorbeads and antibody conjugated to acceptor beads. In the presence of antigen, the beads come into close proximity. The excitation of the donor beads provokes the release of singlet oxygen molecules that trigger a cascade of energy transfer in the acceptor beads, resulting in light emission. To quantify the amount of Aβ42 in the cell supernatant, monoclonal antibody specific to the C-terminus of Aβ42 (JRF/cAβ42/26) was coupled to the receptor beads and biotinylated antibody specific to the N-terminus of Aβ (JRF/AβN/25) was used to react with the donor beads. To quantify the amount of Aβ total in the cell supernatant, monoclonal antibody specific to the N-terminus of Aβ (JRF/AβN/25) was coupled to the receptor beads and biotinylated antibody specific to the mid region of Aβ (biotinylated 4G8) was used to react with the donor beads.
(§5) To obtain the values reported in Table 3, the data are calculated as percentage of the maximum amount of amyloid Beta 42 measured in the absence of the test compound. The sigmoidal dose response curves were analyzed using nonlinear regression analysis with percentage of the control plotted against the log concentration of the compound. A 4-parameter equation was used to determine the IC50.

Aβtotal = experiment: Screening for γ-secretase-modulating activity: Aβtotal in supernatant of SKNBE2 cells carrying hAPP 695 wild type (Alphalisa); format: cell-based, human; conditions: overnight incubation, Alphalisa on supernatant
Experimental: as §1, §2, §3, §4, §5

[1] = Homo sapiens, SKNBE2, SKNBE2 human neuroblastoma cells carrying hAPP 695 wild type
[2] = SKNBE2 human neuroblastoma cells carrying hAPP 695 wild type

| SMILES | IC50 (Aβ42; [1]) [µM] | IC50 (Aβtotal; [1]) [µM] | IC50 (Aβ42; [2]) [µM] | IC50 (Aβtotal; [2]) [µM] |
| --- | --- | --- | --- | --- |
| Cc1cn(-c2ccc3cc(-c4nc5n(n4)CCCC5c4ccc(F)cc4C)[nH]c3c2)cn1 (stereo not drawn) [Compound 93] | 1.48 | > 10 |  |  |
| COCc1ccccc1C1CCCn2nc(-c3cc4c(OC)c(C#N)ccc4[nH]3)nc21 (stereo not drawn) [Compound 89, 4-methoxy-2-[5,6,7,8-tetrahydro-8-[2-(methoxymethyl)phenyl][1,2,4]triazolo[1,5-a]pyridin-2-yl]-1H-indole-5-carbonitrile] |  | > 10 | 0.056 |  |
| Cc1cn(-c2cnc3[nH]c(-c4nc5n(n4)CCCC5c4ccc(F)cc4C)cc3c2)cn1 (single isomer, unassigned) [Compound 88, 8-(4-fluoro-2-methylphenyl)-5,6,7,8-tetrahydro-2-[5-(4-methyl-1H-imidazol-1-yl)-1H-pyrrolo[2,3-b]pyridin-2-yl]-[1,2,4]triazolo[1,5-a]pyridine] |  | > 10 | 0.065 |  |
| Cc1ccc(C(F)(F)F)cc1C1OCCn2nc(-c3cc4cc(C#N)ccc4[nH]3)nc21 (stereo not drawn) [Compound 34, 2-[5,6-dihydro-8-[2-methyl-5-(trifluoromethyl)phenyl]-8H-[1,2,4]triazolo[5,1-c][1,4]oxazin-2-yl]-1H-indole-5-carbonitrile] | 0.692 | > 10 |  |  |
| Cc1cc(F)ccc1C1CCCn2cc(-c3cc4nc(-c5cnn(C)c5)ccc4[nH]3)nc21 (stereo not drawn) [Compound 85, 2-[8-(4-fluoro-2-methylphenyl)-5,6,7,8-tetrahydroimidazo[1,2-a]pyridin-2-yl]-5-(1-methyl-1H-pyrazol-4-yl)-1H-pyrrolo[3,2-b]pyridine] |  | > 10 | 9.12 |  |
| COc1c(C#N)ccc2[nH]c(-c3cn4c(n3)C(c3cccc(C)c3F)OCC4)cc12 (single isomer, unassigned) [Compound 136, 2-[8-(2-fluoro-3-methylphenyl)-5,6-dihydro-8H-imidazo[2,1-c][1,4]oxazin-2-yl]-4-methoxy-1H-indole-5-carbonitrile] |  |  | 1.26 | > 10 |
| Cc1cc(F)ccc1C1CCCn2cc(-c3cc4nc(-c5cnn(C)c5)ccc4[nH]3)nc21 (stereo not drawn) [Compound 86, 2-[8-(4-fluoro-2-methylphenyl)-5,6,7,8-tetrahydroimidazo[1,2-a]pyridin-2-yl]-5-(1-methyl-1H-pyrazol-4-yl)-1H-pyrrolo[3,2-b]pyridine] |  |  | 0.112 | > 10 |
| N#Cc1ccc2[nH]c(-c3nc4n(n3)CCOC4c3ccccc3C(F)(F)F)cc2c1 (stereo not drawn) [Compound 35, 2-[5,6-dihydro-8-[2-(trifluoromethyl)phenyl]-8H-[1,2,4]triazolo[5,1-c][1,4]oxazin-2-yl]-1H-indole-5-carbonitrile] | 0.363 | > 10 |  |  |
| Cc1cn(-c2ccc3[nH]c(-c4nc5n(n4)CCOC5c4ccc(F)c(F)c4C)cc3c2)cn1 (stereo not drawn) [Compound 104, 8-(3,4-difluoro-2-methylphenyl)-5,6-dihydro-2-[5-(4-methyl-1H-imidazol-1-yl)-1H-indol-2-yl]-8H-[1,2,4]triazolo[5,1-c][1,4]oxazine] | 0.044 | > 10 |  |  |
| Cc1cc(F)ccc1C1OCCn2nc(-c3cc4c(OCC(F)F)c(C#N)ccc4[nH]3)nc21 (stereo not drawn) [Compound 168, 4-(2,2-difluoroethoxy)-2-[8-(4-fluoro-2-methylphenyl)-5,6-dihydro-8H-[1,2,4]triazolo[5,1-c][1,4]oxazin-2-yl]-1H-indole-5-carbonitrile] | 0.245 | > 10 |  |  |
| COCc1ccccc1C1OCCn2cc(-c3cc4c(OC)c(C#N)ccc4[nH]3)nc21 (stereo not drawn) [Compound 146, 2-[5,6-dihydro-8-[2-(methoxymethyl)phenyl]-8H-imidazo[2,1-c][1,4]oxazin-2-yl]-4-methoxy-1H-indole-5-carbonitrile] |  |  | 6.17 | > 10 |
| COc1c(C#N)ccc2[nH]c(-c3cn4c(n3)C(c3c(C)cccc3F)OCC4)cc12 (stereo not drawn) [Compound 124, 2-[8-(2-fluoro-6-methylphenyl)-5,6-dihydro-8H-imidazo[2,1-c][1,4]oxazin-2-yl]-4-methoxy-1H-indole-5-carbonitrile] |  | > 10 | 0.047 |  |
| COCCOc1c(C#N)ccc2[nH]c(-c3cn4c(n3)C(c3ccc(F)cc3C)OCC4)cc12 (stereo not drawn) [Compound 167, 2-[8-(4-fluoro-2-methylphenyl)-5,6-dihydro-8H-imidazo[2,1-c][1,4]oxazin-2-yl]-4-(2-methoxyethoxy)-1H-indole-5-carbonitrile] | 0.257 | > 10 |  |  |
| Cc1cn(-c2ccc3[nH]c(-c4nc5n(n4)CCOC5c4ccc(F)cc4C)cc3n2)cn1 (stereo not drawn) [Compound 94, 8-(4-fluoro-2-methylphenyl)-5,6-dihydro-2-[5-(4-methyl-1H-imidazol-1-yl)-1H-pyrrolo[3,2-b]pyridin-2-yl]-8H-[1,2,4]triazolo[5,1-c][1,4]oxazine] | 0.17 | 1.82 |  |  |

Results, then the molecule that gave them:

| IC50 (Aβ42; [1]) [µM] | IC50 (Aβtotal; [1]) [µM] | IC50 (Aβ42; [2]) [µM] | IC50 (Aβtotal; [2]) [µM] | SMILES |
| --- | --- | --- | --- | --- |
| 0.11 | > 10 |  |  | COc1c(C#N)ccc2[nH]c(-c3nc4n(n3)CCOC4c3cc(C(F)(F)F)ccc3F)cc12 (stereo not drawn) [Compound 121, 2-[8-[2-fluoro-5-(trifluoromethyl)phenyl]-5,6-dihydro-8H-[1,2,4]triazolo[5,1-c][1,4]oxazin-2-yl]-4-methoxy-1H-indole-5-carbonitrile] |
|  | > 10 | 0.035 |  | COc1c(C#N)ccc2[nH]c(-c3cn4c(n3)C(c3cccc(F)c3C)OCC4)cc12 (stereo not drawn) [Compound 40, 2-[8-(3-fluoro-2-methylphenyl)-5,6-dihydro-8H-imidazo[2,1-c][1,4]oxazin-2-yl]-4-methoxy-1H-indole-5-carbonitrile] |
|  |  | 0.098 | > 10 | COc1c(C#N)ccc2[nH]c(-c3nc4n(n3)CCOC4c3cc(C(F)(F)F)ccc3F)cc12 (single isomer, unassigned) [Compound 161, 2-[8-[2-fluoro-5-(trifluoromethyl)phenyl]-5,6-dihydro-8H-[1,2,4]triazolo[5,1-c][1,4]oxazin-2-yl]-4-methoxy-1H-indole-5-carbonitrile] |
|  | > 10 | 0.033 |  | COc1c(C#N)ccc2[nH]c(-c3nc4n(n3)CCOC4c3cccc(F)c3C)cc12 (stereo not drawn) [Compound 127, 2-[8-(3-fluoro-2-methylphenyl)-5,6-dihydro-8H-[1,2,4]triazolo[5,1-c][1,4]oxazin-2-yl]-4-methoxy-1H-indole-5-carbonitrile] |
|  |  | 1.86 | > 10 | COc1c(C#N)ccc2[nH]c(-c3nc4n(n3)CCOC4c3cccc(C)c3F)cc12 (single isomer, unassigned) [Compound 149, 2-[8-(2-fluoro-3-methylphenyl)-5,6-dihydro-8H-[1,2,4]triazolo[5,1-c][1,4]oxazin-2-yl]-4-methoxy-1H-indole-5-carbonitrile] |
|  | > 10 | 0.044 |  | COc1c(C#N)ccc2[nH]c(-c3nc4n(n3)CCCOC4c3ccc(F)cc3C)cc12 (stereo not drawn) [Compound 52, 2-[9-(4-fluoro-2-methylphenyl)-6,7-dihydro-5H,9H-[1,2,4]triazolo[5,1-c][1,4]oxazepin-2-yl]-4-methoxy-1H-indole-5-carbonitrile] |
|  |  | 6.92 | > 10 | COc1c(C#N)ccc2[nH]c(-c3nc4n(n3)CCOC4c3c(F)cccc3C(F)(F)F)cc12 (stereo not drawn) [Compound 162, 2-[8-[2-fluoro-6-(trifluoromethyl)phenyl]-5,6-dihydro-8H-[1,2,4]triazolo[5,1-c][1,4]oxazin-2-yl]-4-methoxy-1H-indole-5-carbonitrile] |
